From US20250059208A1, “KRAS MODULATING COMPOUNDS” (priority 2023, published 2025)
pEC50, pIC50: −log10 of the molar value.

Experiments:
[1] = system: cellular pERK in NCI-H441 (KRAS-G12V) cell-line; assay: Cell based pERK assay, NCI-H441; settings: Homo sapiens; NCI-H441 (KRAS-G12V) cells, 2 hours compound incubation, HTRF Phospho-ERK1/2
Protocol: (§1) Compounds were tested in a 384-well assay format for their ability to inhibit cellular pERK in Kuramochi (WT KRAS), MIA-PaCa-2 (KRAS-G12C), ASPC-1 (KRAS G12D), and NCI-H441 (KRAS-G12V) cell-lines. Compounds were serially diluted (1:3) in DMSO. On day −1, 80 μL of cells were plated per well in the 384 well tissue-culture plates (Greiner: Cat #781080) to seed 5000 cells per wells of AsPC-1 or 7500 cells of MIA-PaCa-2, NCI-H441, and Kuramochi cell lines in RPMI (Corning: Cat #10-040-CM) with 10% fetal bovine serum (FBS) (HyClone: Cat #SH30071-03) and IX penicillin-streptomycin-glutamate (PSG) (Corning: Cat #30-009-C1) for […] and Kuramochi cell lines and DMEM (Corning: Cat #15-018-CM) with 10% FBS and 1×PSG for MIA-PaCa-2 cell line. The plates were then incubated overnight at 37° C. and 5% CO2. On day 0, 400 nL of compound/well was added into the cell plates and mixed 5 times by pipetting using a Beckmann Biomek FX. The cell plates were then incubated for 2 hours at 37° C. and 5% CO2. HTRF Advanced Phospho-ERK1/2 (THR202/TYR204) Detection Kits (PerkinElmer: Cat #64AERPEG) were used to prepare the lysis and detection solution according to manufacturer protocol. Following the 2 hour incubation, 70 μL of medium was aspirated from the plates and 10 μL of lysis and detection solution was added to the plates using a Biotek EL406 washer and dispenser. Plates were sealed and stored overnight at room temperature. HTRF ratio (665 nm/615 nm) was read by Envision multimode reader (PerkinElmer) the next day. The TR-FRET ratios were normalized to a positive (saturating concentration of known inhibitor) and negative (DMSO) control and plotted against the log of compound concentration.

[2] = system: cellular pERK in ASPC-1 (KRAS G12D) cell-line; assay: Cell based pERK assay, ASPC-1; settings: Homo sapiens, ASPC1, 2 h, ASPC-1 (KRAS G12D) cells, 2 hours compound incubation, HTRF Phospho-ERK1/2
Protocol: as §1

[3] = system: cellular pERK in MIA-PaCa-2 (KRAS-G12C) cell-line; assay: Cell based pERK assay, MIA-PaCa-2; settings: Homo sapiens; MIA-PaCa-2 (KRAS-G12C) cells, 2 hours compound incubation, HTRF Phospho-ERK1/2; read-out: MIAPaCa2 pERK EC50
Protocol: as §1

GDP-loaded KRAS-G12V = GDP-loaded KRAS-G12V (Homo sapiens, UniProt P01116, G12V); assay: KRAS (GDP) biochemical TR-FRET probe displacement assay, G12V; format: binding; settings: 2 hours at room temperature
GDP-loaded KRAS-G12V, sequence (P01116 1-188 isoform P01116-2 G12V): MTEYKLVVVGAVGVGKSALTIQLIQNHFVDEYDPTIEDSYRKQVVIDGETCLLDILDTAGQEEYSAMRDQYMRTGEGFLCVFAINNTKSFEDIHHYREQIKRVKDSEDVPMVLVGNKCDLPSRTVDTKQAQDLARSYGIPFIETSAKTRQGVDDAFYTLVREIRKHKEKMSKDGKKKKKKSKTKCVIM
Protocol: (§2) • Compounds were tested for binding to GDP-loaded wild-type KRAS (WT), KRAS-G12C, KRAS-G12D, and KRAS-G12V in a 384-well assay format using a TR-FRET probe displacement assay in buffer consisting of 50 mM Hepes (pH 7.4), 150 mM NaCl. 5 mM MgCl2 and 0.005% Tween-20. 0.03 nM KRAS was used in this assay with 0.02 nM Eu-streptavidin and 12 nM Cy-5 labelled probe. Compounds were serially diluted (1:3) in DMSO. The LabCyte ECHO Acoustic dispenser was used to pre-spot the assay plates (384-well Non-Binding Surface plates, Corning, Catalog #3824) with 50 nL of compound. 5 μL of 2× enzyme concentration was added to the pre-spotted plates and incubated for 30 minutes before adding 5 μL of 2× concentration of Eu-streptavidin and Cy-5 labelled probe (10 μL final reaction volume). The plates were incubated at room temperature for 2 hours before measuring TR-FRET ratio (665 nm/615 nm) on the Envision multimode plate reader. The ratios were normalized to a positive (saturating concentration of known inhibitor) and negative (DMSO) control and plotted against the log of compound concentration. […]

[4] = system: cellular pERK in Kuramochi (WT KRAS) cell-line; assay: Cell based pERK assay, Kuramochi; settings: 2 h, Kuramochi (WT KRAS) cells, 2 hours compound incubation, HTRF Phospho-ERK1/2
Protocol: as §1

GDP-loaded KRAS-G12D = GDP-loaded KRAS-G12D (Homo sapiens, UniProt P01116, G12D); assay: KRAS (GDP) biochemical TR-FRET probe displacement assay, G12D; format: binding; settings: 2 hours at room temperature
GDP-loaded KRAS-G12D, sequence (P01116 1-188 isoform P01116-2 G12D): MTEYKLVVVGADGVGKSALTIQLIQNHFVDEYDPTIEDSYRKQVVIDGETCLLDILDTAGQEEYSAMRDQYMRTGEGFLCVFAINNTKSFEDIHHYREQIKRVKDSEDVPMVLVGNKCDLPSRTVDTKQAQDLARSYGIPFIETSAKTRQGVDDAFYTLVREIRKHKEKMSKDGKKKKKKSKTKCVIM
Protocol: as §2

[5] = target: GDP-loaded wild-type KRAS (WT) (Homo sapiens, UniProt P01116); assay: KRAS (GDP) biochemical TR-FRET probe displacement assay, WT; format: binding; settings: 2 hours at room temperature
GDP-loaded wild-type KRAS (WT), sequence (P01116 1-188 isoform P01116-2): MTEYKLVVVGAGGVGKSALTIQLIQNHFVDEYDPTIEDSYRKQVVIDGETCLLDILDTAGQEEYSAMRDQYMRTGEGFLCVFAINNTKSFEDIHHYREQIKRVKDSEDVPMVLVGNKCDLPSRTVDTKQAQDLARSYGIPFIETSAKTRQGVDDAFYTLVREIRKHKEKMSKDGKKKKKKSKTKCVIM
Protocol: as §2

GDP-loaded KRAS-G12C = GDP-loaded KRAS-G12C (Homo sapiens, UniProt P01116, G12C); assay: KRAS (GDP) biochemical TR-FRET probe displacement assay, G12C; format: binding; settings: 2 hours at room temperature
GDP-loaded KRAS-G12C, sequence (P01116 1-188 isoform P01116-2 G12C): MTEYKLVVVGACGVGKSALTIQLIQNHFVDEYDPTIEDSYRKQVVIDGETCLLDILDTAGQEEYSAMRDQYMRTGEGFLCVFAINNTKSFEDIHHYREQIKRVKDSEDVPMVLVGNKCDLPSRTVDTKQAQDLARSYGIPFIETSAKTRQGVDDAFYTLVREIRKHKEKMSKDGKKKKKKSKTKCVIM
Protocol: as §2

SMILES | pEC50 [1] | pEC50 [2] | pEC50 [3] | pIC50 (GDP-loaded KRAS-G12V) | pEC50 [4] | pIC50 (GDP-loaded KRAS-G12D) | pIC50 [5] | pIC50 (GDP-loaded KRAS-G12C)
C#Cc1c(F)ccc2cc(N)nc(-c3c(Cl)cc4c(N5CC6(F)CCC(F)(C5)N6)nc(OC[C@@]56CCCN5C[C@H](F)C6)nc4c3F)c12 [Example 7-5] | 6.26 | 6.13 | 6.75 | < 7.00 | 7.66 | < 7.00 | < 7.00 | < 7.00
Cc1cc(N)nc(-c2c(F)cc3c(N4CC5(F)CCC(F)(C4)N5)nc(OC[C@@]45CCCN4C[C@H](F)C5)nc3c2F)c1C(F)(F)F [Example 6-1, 6-(4-(1,5-difluoro-3,8-diazabicyclo[3.2.1]octan-3-yl)-6,8-difluoro-2-(((2R,7aS)-2-fluorotetrahydro-1H-pyrrolizin-7a(5H)-yl)methoxy)quinazolin-7-yl)-4-methyl-5-(trifluoromethyl)pyridin-2-amine] | 6.21 | < 6.00 | 6.46 | < 7.00 | 7.31 | < 7.00 | < 7.00 | < 7.00
Nc1nc2c(-c3c(Cl)cc4c(N5CC6(F)CCC(F)(C5)N6)nc(OC[C@@]56CCCN5C[C@H](F)C6)nc4c3F)ccc(F)c2s1 [Example 7-4] | 6.93 | 6.34 | 7.37 | < 7.08 | 7.87 | < 7.00 | 7.84 | 7.37
C#Cc1c(F)ccc2cc(O)cc(-c3c(Cl)cc4c(N5CC6(F)CCC(F)(C5)N6)nc(OC[C@@]56CCCN5C[C@H](F)C6)nc4c3F)c12 [Example 2-6] | 8.21 | 7.56 | 8.76 | 8.01 | 8.29 | 7.59 | 8.23 | 8.55
Fc1cc2c(N3CC4(F)CCC(F)(C3)N4)nc(OC[C@@]34CCCN3C[C@H](F)C4)nc2c(F)c1-c1csc2ncnc(Cl)c12 [Example 6-2] | < 6.00 | < 6.00 | < 6.00 | < 7.00 | < 6.00 | < 7.00 | < 7.00 | < 7.00
C#Cc1c(F)ccc2cc(N)cc(-c3ncc4c(N5CC6(F)CCC(F)(C5)N6)nc(OC[C@@]56CCCN5[C@H](COc5cc(C(F)(F)F)ncn5)CC6)nc4c3F)c12 [Example 5-2] | 7.57 | 7.19 | 8.49 | 8.36 | 8.22 | 7.99 | 9.03 | 8.86
C#Cc1c(F)ccc2cc(O)cc(-c3ncc4c(N5CC6(F)CCC(F)(C5)N6)nc(OC[C@@]56CCCN5[C@H](COc5cc(C(F)(F)F)ncn5)CC6)nc4c3F)c12 [Example 2-3] | 8.68 | 8.67 | 9.72 | 9.38 | 8.59 | 9.26 | 9.54 | 9.40
Cc1cc(-c2c(F)cc3c(N4CC5(F)CCC(F)(C4)N5)nc(OC[C@@]45CCCN4C[C@H](F)C5)nc3c2F)c2cccnc2c1N [Example 2-7] | < 6.00 | < 6.00 | < 6.00 | < 7.00 | < 6.00 | < 7.00 | < 7.00 | < 7.00
C#Cc1c(F)ccc2cc(O)cc(-c3ncc4c(N5C[C@]6(F)CC[C@](F)(C5)N6)nc(OC[C@@]56CCCN5C[C@H](F)C6)nc4c3F)c12 [Example 1-1, 4-(4-((1R,5S)-1,5-difluoro-3,8-diazabicyclo[3.2.1]octan-3-yl)-8-fluoro-2-(((2R,7aS)-2-fluorotetrahydro-1H-pyrrolizin-7a(5H)-yl)methoxy)pyrido[4,3-d]pyrimidin-7-yl)-5-ethynyl-6-fluoronaphthalen-2-ol] | 9.08 | 8.39 | 9.80 | 9.96 | 8.92 | 9.85 | 10.10 | 10.00
